The values below come from PMC5909127, “Optimization of a “bump-and-hole” approach to allele-selective BET bromodomain inhibition” (Chemical Science, 2018).

Like-named read-outs stand apart in the source and are kept apart here.

As a reminder, the half-life is how long it takes for the measured level to halve.

Series [1] in a line: Intrinsic Clearance. Particulars: mouse liver microsomes.
The subject of series [2] is L/V BET bromodomains (BD1 and BD2 of BRD2, BRD3 and BRD4). In words: competitive AlphaLISA (Bio-JQ1 displacement). Type of series: binding, human. Particulars: for AlphaLISA pIC50 ± SD Δ: L/V minus WT; for AlphaLISA pIC50 ± SD L/V: mean and SD of all somatic bromodomains, active enantiomer concentration. For orientation: Bead proximity is the source of the signal in Alpha formats.

Series [3] is described as follows: Plasma Half-life. Particulars: BALB/c, mouse, pH 7.4.
Series [4] deals with BRD2 BD1 WT (Homo sapiens, UniProt P25440). Nature of the series: competitive AlphaLISA. Type of series: binding.
Sequence of BRD2 BD1 WT (P25440 71-176): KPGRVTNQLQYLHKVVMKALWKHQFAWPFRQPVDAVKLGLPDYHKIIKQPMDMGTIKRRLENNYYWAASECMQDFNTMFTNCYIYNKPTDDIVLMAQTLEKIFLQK
The target of series [5] is BRD3 BD1 L/V (Homo sapiens, UniProt Q15059, L70V). In words: competitive AlphaLISA. Type of series: binding.
Sequence of BRD3 BD1 L/V (Q15059 24-144 L70V limits assumed): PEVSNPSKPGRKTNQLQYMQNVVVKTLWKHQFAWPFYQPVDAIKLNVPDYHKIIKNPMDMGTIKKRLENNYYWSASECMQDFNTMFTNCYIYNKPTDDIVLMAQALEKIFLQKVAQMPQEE
Series [6] addresses BRD4 BD1 WT (Homo sapiens, UniProt O60885). In words: competitive AlphaLISA. In kind it is binding. Conditions: AlphaLISA pIC50 Value BRD4 BD1 WT.
The target of series [7] is BRDT BD1 WT (Homo sapiens, UniProt Q58F21). In words: competitive AlphaLISA. Type of series: binding.
Series [8] concerns the target BRD2 BD2 L/V (Homo sapiens, UniProt P25440, L383V). In words: competitive AlphaLISA. In kind it is binding.
Series [9] concerns the target BRD4 BD1 L/V (Homo sapiens, UniProt O60885, L94V). Nature of the series: competitive AlphaLISA. Type of series: binding. Particulars: AlphaLISA pIC50 Value BRD4 BD1 L/V.
Series [10] concerns the target BRD3 BD2 WT (Homo sapiens, UniProt Q15059). In words: competitive AlphaLISA. In kind it is binding.
Series [11] has as its target WT BET bromodomains (BD1 and BD2 of BRD2, BRD3 and BRD4). Nature of the series: competitive AlphaLISA (Bio-JQ1 displacement). Type of series: binding, human. Conditions: mean and SD of all somatic bromodomains; active enantiomer concentration.
Series [12] has as its target BRD2 BD2 WT (Homo sapiens, UniProt P25440). Nature of the series: competitive AlphaLISA. In kind it is binding.
The target of series [13] is BRD4 BD2 WT (Homo sapiens, UniProt O60885). Nature of the series: competitive AlphaLISA. In kind it is binding.
Series [14] deals with BRD2 BD1 L/V (Homo sapiens, UniProt P25440, L110V). In words: competitive AlphaLISA. Type of series: binding.
Sequence of BRD2 BD1 L/V (P25440 71-176 L110V limits assumed): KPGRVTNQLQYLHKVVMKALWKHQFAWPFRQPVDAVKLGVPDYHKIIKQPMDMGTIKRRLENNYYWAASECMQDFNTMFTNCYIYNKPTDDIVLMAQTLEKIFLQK
Series [15] deals with BRD3 BD1 WT (Homo sapiens, UniProt Q15059). Nature of the series: competitive AlphaLISA. In kind it is binding.
Sequence of BRD3 BD1 WT (Q15059 24-144): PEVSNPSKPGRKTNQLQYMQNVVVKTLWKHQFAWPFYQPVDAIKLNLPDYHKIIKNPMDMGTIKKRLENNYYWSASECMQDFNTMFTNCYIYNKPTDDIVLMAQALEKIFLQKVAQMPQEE
Series [16] has as its target BRD3 BD2 L/V (Homo sapiens, UniProt Q15059, L345V). Nature of the series: competitive AlphaLISA. In kind it is binding.
In series [17] the target is BRDT BD1 L/V (Homo sapiens, UniProt Q58F21, L63V). Nature of the series: competitive AlphaLISA. In kind it is binding.
For series [18], the target named is BRD4 BD2 L/V (Homo sapiens, UniProt O60885, L387V). Nature of the series: competitive AlphaLISA. Type of series: binding.
Series [19] concerns the target BRDT BD2 WT (Homo sapiens, UniProt Q58F21). In words: competitive AlphaLISA. Type of series: binding.
Series [20] addresses BRDT BD2 L/V (Homo sapiens, UniProt Q58F21, L306V). In words: competitive AlphaLISA. In kind it is binding.

Sequence of BRD3 BD2 L/V (Q15059 306-416 L345V limits assumed): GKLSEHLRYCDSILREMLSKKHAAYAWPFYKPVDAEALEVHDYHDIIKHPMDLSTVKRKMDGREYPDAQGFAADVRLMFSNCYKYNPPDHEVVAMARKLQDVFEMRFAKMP
Sequence of BRD2 BD2 WT (P25440 344-455): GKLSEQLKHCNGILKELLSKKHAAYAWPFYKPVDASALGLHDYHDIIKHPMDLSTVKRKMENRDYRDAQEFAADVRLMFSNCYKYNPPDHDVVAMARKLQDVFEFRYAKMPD
Sequence of BRD3 BD2 WT (Q15059 306-416): as the sequence (Q15059 306-416 L345V limits assumed) above, with V40L counted along it
Sequence of BRD2 BD2 L/V (P25440 344-455 L383V): as the sequence (P25440 344-455) above, with L40V counted along it

`Cc1sc2c(c1C)C(c1ccc(Cl)cc1)=N[C@@H](CC(=O)OC(C)(C)C)c1nnc(C)n1-2` [(+)JQ1, reference compound] had a CL int in [1] of 7.5 ml min^–1 g^–1. In [2], the “AlphaLISA pIC50 ± SD Δ” value is recorded as “–0.1 ± 0.1”. Besides, in series [3], the half-life at 50 µM is over 180 min.

In the case of `CCC[C@@H](C(=O)OC)[C@@H]1N=C(c2ccc(Cl)cc2)c2cc(OC)ccc2-n2c(C)nnc21` (relative stereo) [Compound 6], the CL int in series [1] turned out to be 5.2 ml min^–1 g^–1. Besides, the IC50 in series [4] was 31.6 µM; in [5], 6.31 µM; in series [6], 25.1 µM; in series [7] it was 31.6 µM; in series [8] it was 10 µM; in series [9] it was 7.94 µM. In addition, the IC50 was 20 µM in series [10]; over 100 µM in series [12]; 63.1 µM in [13]; 10 µM in [14]; 20 µM in series [15]; 10 µM in [16]. In series [17], the IC50 is 25.1 µM. Moreover, in [11], the “AlphaLISA pIC50 ± SD WT” value is 4.5 ± 0.2. Further, the “selectivity (L/V over WT, AlphaLISA)” value in series [2] was “less than 10 fold”. The “AlphaLISA pIC50 ± SD Δ” value in series [2] turned out to be 0.6 ± 0.2. Further, the “AlphaLISA pIC50 ± SD L/V” value in [2] is 5.0 ± 0.1. Further, the half-life at 50 µM in [3] is over 180 min.

`CC[C@@H](C(=O)OC(C)(C)C)[C@@H]1N=C(c2ccc(Cl)cc2)c2ccc(OC)cc2-n2c(C)nnc21` [Compound 25] registered a CL int in series [1] of 31.0 ml min^–1 g^–1. Besides, the IC50 in series [18] is 20 µM; in [4], 39.8 µM; in series [5], 5.01 µM; in [19], 39.8 µM; in [6], 15.8 µM; in series [7], 25.1 µM. Besides, the IC50 in series [9] is 7.94 µM; in [10], 25.1 µM; in series [12] it was 20 µM; in series [13], 25.1 µM; in series [14], 10 µM; in series [15], 20 µM. The compound further showed an IC50 in series [16] of 10 µM. Besides, the “AlphaLISA pIC50 ± SD WT” value in series [11] was found to be 4.6 ± 0.1. In addition, the “AlphaLISA pIC50 ± SD Δ” value in series [2] is listed as 0.4 ± 0.2. Further, the “AlphaLISA pIC50 ± SD L/V” value in series [2] amounted to 5.0 ± 0.2. The same compound showed a half-life at 50 µM in [3] of over 180 min.

On to `CCN(CC)C(=O)[C@H](C)[C@@H]1N=C(c2ccc(Cl)cc2)c2cc(OC)ccc2-n2c(C)nnc21` (relative stereo) [Compound 19], for which the CL int in series [1] is on record as over 50 ml min^–1 g^–1. The IC50 was 1.26 µM in [18]; 0.398 µM in [5]; 25.1 µM in [19]; 3.16 µM in series [20]; 39.8 µM in series [7]; 1 µM in series [8]. For the same compound, the IC50 in [9] was 1.26 µM; in series [12], 25.1 µM; in [13] it was 25.1 µM; in [14] it was 1 µM; in series [15] it was 5.01 µM; in series [16], 0.501 µM. The compound further showed an IC50 in series [17] of 3.98 µM. Moreover, in series [11], the “AlphaLISA pIC50 ± SD WT” value is given as 4.9 ± 0.2. For the same compound, in [2], the “AlphaLISA pIC50 ± SD Δ” value was found to be 1.2 ± 0.2. In series [2], the “AlphaLISA pIC50 ± SD L/V” value was found to be 6.1 ± 0.2. Besides, the half-life at 50 µM in [3] was over 180 min.

On to `CCNC(=O)C[C@@H]1N=C(c2ccc(Cl)cc2)c2cc(OC)ccc2-n2c(C)nnc21` [I-BET762, reference compound], for which the IC50 in series [17] (read-out: AlphaLISA pIC50 Value BRDT BD1 L/V (converted)) is 1 µM.
